Laboratory results reported in patent publication EP2929785A1, “A PLA inhibitor for inhibition of fat absorption” (PAT GmbH, priority 2014, dated 2015).
Each block holds one compound with its values, some of them ahead of it. Peptide text beside a SMILES is read from it. * marks the point of attachment. Cbz = O=C(OCc1ccccc1)*

Experiments:
[1] = test system: HepG2 cells; experiment: Fatty acid ([3H]oleate:albumin) influx in HepG2 cells; format: cell-based, human
[2] = test system: DRM-PM proteins iPLA2ß, CD36, FABPPM, caveolin1; experiment: DRM-PM protein levels in HepG2 cells by semi-quantitative densitometry; format: cell-based, human; conditions: bafilomycin 50 nM, 16 h
[3] = test system: cytosolic LPC; experiment: Cytosolic LPC concentration in HepG2 cells; format: cell-based, human; conditions: Homo sapiens, HepG2, 0.5 h; 30 min treatment (Fig. 7); read-out: suppression of cytosolic LPC (IC50)
Experimental: LPC concentration in cytosolic supernatants was measured as previously described (Kishimoto T et al. Clin. Biochem. 2002; 35: 411-416).

[4] = target: T1, organic anion-transporting polypeptide 1 in HepG2 cells (Homo sapiens, UniProt P46721); conditions: uptake by HepG2 cells; Chamulitrat et al. 2009; read-out: half-maximal inhibitory concentration (IC50) for competition with UDCA-LPE uptake; cited from earlier work
T1 construct: host or cells: HepG2 (endogenous)
T1 sequence (P46721 1-670): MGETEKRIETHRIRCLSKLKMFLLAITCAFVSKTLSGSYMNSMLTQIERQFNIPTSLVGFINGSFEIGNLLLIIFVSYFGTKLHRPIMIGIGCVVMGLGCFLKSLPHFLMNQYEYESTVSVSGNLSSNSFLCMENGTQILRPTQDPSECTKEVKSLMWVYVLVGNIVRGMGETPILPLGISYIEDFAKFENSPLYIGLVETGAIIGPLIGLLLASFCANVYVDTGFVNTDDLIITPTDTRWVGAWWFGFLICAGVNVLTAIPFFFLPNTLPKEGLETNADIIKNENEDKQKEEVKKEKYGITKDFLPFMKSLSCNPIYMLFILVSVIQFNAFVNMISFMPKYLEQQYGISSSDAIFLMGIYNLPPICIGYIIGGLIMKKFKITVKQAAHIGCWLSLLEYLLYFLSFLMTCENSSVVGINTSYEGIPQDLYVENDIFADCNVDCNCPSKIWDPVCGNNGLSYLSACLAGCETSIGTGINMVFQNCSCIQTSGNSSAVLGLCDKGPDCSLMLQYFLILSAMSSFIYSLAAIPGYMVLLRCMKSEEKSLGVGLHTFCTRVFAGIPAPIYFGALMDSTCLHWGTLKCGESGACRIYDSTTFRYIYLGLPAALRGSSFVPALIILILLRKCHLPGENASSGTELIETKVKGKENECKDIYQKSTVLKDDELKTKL

[5] = test system: HepG2 cells; experiment: [3H]glucose influx in HepG2 cells; format: cell-based, human; conditions: at 10 mM glucose; MßCD
[6] = test system: transcripts of all complex subunits; experiment: In vitro transcription in native HepG2 nuclear extracts exposed to LPC-conditioned delipidated cytosol; format: biochemical, human; conditions: delipidated cytosol incubated with LPC 1 h

Compound: O=C([O-])[C@H](O)[C@@H](O)[C@H](O)[C@H](O)CO.[Na+] [Na-gluconate, reference compound]
passive translocation component of fatty acid influx [1]: inhibited to negligible levels

Compound: CC(C)C[C@@H](C=O)NC(=O)[C@H](CC(C)C)NC(=O)[C@H](CC(C)C)NC(=O)OCc1ccccc1 [MG132, reference compound] (Cbz-Leu-Leu-Leu-aldehyde)
effect on fatty acid uptake [1]: no effect on uptake

Compound: CO/C1=C\C(C)=C\[C@@H](C)[C@@H](O)[C@@H](C)C/C(C)=C/C=C/[C@H](OC)[C@@H]([C@@H](C)[C@@H](O)[C@H](C)[C@@]2(O)C[C@@H](O)[C@H](C)[C@@H](C(C)C)O2)OC1=O [bafilomycin]
fatty acid influx ([1]; bafilomycin 50 nM, 16 h, untreated 26.95 ± 2.4): 33.33 ± 5.1 nmol/mg protein/min
increase in DRM-PM CD36 [2]: 40.85 ± 10.56%
increase in DRM-PM FABPPM [2]: 25.99 ± 3.35%
increase in DRM-PM caveolin1 [2]: 60.76 ± 7.03%
increase in DRM-PM iPLA2ß [2]: 51.56 ± 9.85%

IC50 ([1]; Homo sapiens, HepG2, 1-h treatment with increasing concentrations (Fig. 2A), read-out: inhibition of fatty acid influx (IC50)): 52 µM
IC50 [3]: 43 µM
Compound: O=C1O/C(=C/Br)CCC1c1cccc2ccccc12 (stereo not shown) [BEL, bromoenol lactone, reference compound]

Compound: C[C@H](CCC(=O)O)[C@H]1CC[C@H]2[C@@H]3[C@@H](O)C[C@@H]4C[C@H](O)CC[C@]4(C)[C@H]3CC[C@]12C [UDCA, ursodeoxycholic acid]
IC50 [4]: 20 µM

Compound: methyl-beta-cyclodextrin [MßCD, reference compound]
additional reduction of fatty acid influx [1]: 60%
influx of [3H]glucose [5]: 135.70 ± 14.7 nmol/mg protein/min

Compound: lysophosphatidylcholine [LPC]
LPC concentration at which the transcripts of all complex subunits were downregulated [6]: 5 µmol/mg protein
